In patent publication US20210254272A1, “TEXTILES HAVING ANTIMICROBIAL PROPERTIES” (Livinguard AG, priority 2015, published 2021):

Tested on: E. coli (ATCC 25922)
Test: AATCC Test Method 100-2012 antibacterial activity of the treated textile, after 25 washes and 12 abrasion cycles, contact time 60 minutes
Type: cell-based
Details: for Log reduction of antimicrobial performance: 1% o.w.f; for Log reduction of antimicrobial performance in 100 GSM cotton fabric / Log reduction of antimicrobial performance in 300 GSM cotton fabric: 2 min
Method: The antibacterial activity of the textile was tested in accordance with AATCC Test Method 100-2012. Prior to the test, the fabric was cut into coupons of 2×4 inches and washed separately 25 times, and exposed to 12 abrasion cycles, as per US EPA protocol 90072PA4 (described further below). The tests were made against E. coli (ATCC 25922). Contact time was 60 minutes, after inoculating with 10^8 CFU per coupon.

[1] = exhaust 80° C., 60 min, curing 180° C., dosage 0.1% o.w.f
[2] = exhaust 80° C., 60 min, curing 180° C., dosage 0.2% o.w.f
[3] = exhaust 80° C., 60 min, curing 180° C., dosage 0.5% o.w.f
[4] = exhaust 80° C., 60 min, curing 180° C., dosage 0.8% o.w.f
[5] = exhaust 80° C., 60 min, curing 180° C., dosage 1.0% o.w.f

polyglucosamine [chitosan]
Log reduction of antimicrobial performance of each active ingredient (exhaust 60° C., solution dosage 1% o.w.f, process time 60 min): 1.4 Log | Log reduction of antimicrobial performance of each active ingredient (exhaust 60° C., solution dosage 1% o.w.f, process time 90 min): 1.5 Log | Log reduction of antimicrobial performance of each active ingredient (exhaust 60° C., solution dosage 1% o.w.f, process time 120 min): 1.6 Log | Log reduction of antimicrobial performance of each active ingredient (exhaust 60° C., solution dosage 1% o.w.f, process time 180 min): 1.7 Log | Log reduction of antimicrobial performance of each active ingredient (exhaust 60° C., solution dosage 1% o.w.f, process time 240 min): 1.65 Log | Log reduction of antimicrobial performance (exhaust 80° C., 60 min, curing 170° C., curing dwell time 0.5 min): 0.3 Log | Log reduction of antimicrobial performance (exhaust 80° C., 60 min, curing 170° C., curing dwell time 1.0 min): 0.7 Log | Log reduction of antimicrobial performance (exhaust 80° C., 60 min, curing 170° C., curing dwell time 1.5 min): 0.7 Log | Log reduction of antimicrobial performance (exhaust 80° C., 60 min, curing 170° C., curing dwell time 2.0 min): 1.4 Log | Log reduction of antimicrobial performance (exhaust 80° C., 60 min, curing 170° C., curing dwell time 2.5 min): 1.3 Log | Log reduction of antimicrobial performance (exhaust 80° C., 60 min, curing 170° C., curing dwell time 3.0 min): 0.64 Log | Log reduction of antimicrobial performance (exhaust 80° C., 60 min, curing 180° C., curing dwell time 0.5 min): 1.4 Log | Log reduction of antimicrobial performance (exhaust 80° C., 60 min, curing 180° C., curing dwell time 1.0 min): 1.5 Log | Log reduction of antimicrobial performance (exhaust 80° C., 60 min, curing 180° C., curing dwell time 1.5 min): 1.6 Log | Log reduction of antimicrobial performance (exhaust 80° C., 60 min, curing 180° C., curing dwell time 2.0 min): 3.5 Log | Log reduction of antimicrobial performance (exhaust 80° C., 60 min, curing 180° C., curing dwell time 2.5 min): 3.5 Log | Log reduction of antimicrobial performance (exhaust 80° C., 60 min, curing 180° C., curing dwell time 3.0 min): 3.4 Log | Log reduction of antimicrobial performance (exhaust 80° C., 60 min, curing 190° C., curing dwell time 0.5 min): 0.3 Log | Log reduction of antimicrobial performance (exhaust 80° C., 60 min, curing 190° C., curing dwell time 1.0 min): 1.2 Log | Log reduction of antimicrobial performance (exhaust 80° C., 60 min, curing 190° C., curing dwell time 1.5 min): 1.4 Log | Log reduction of antimicrobial performance (exhaust 80° C., 60 min, curing 190° C., curing dwell time 2.0 min): 2.66 Log | Log reduction of antimicrobial performance (exhaust 80° C., 60 min, curing 190° C., curing dwell time 2.5 min): 2.31 Log | Log reduction of antimicrobial performance (exhaust 80° C., 60 min, curing 190° C., curing dwell time 3.0 min): 1.3 Log | Log reduction of antimicrobial performance (exhaust 80° C., 60 min, curing temperature 100 ° C.): 0.16 Log | Log reduction of antimicrobial performance (exhaust 80° C., 60 min, curing temperature 120 ° C.): 0.23 Log | Log reduction of antimicrobial performance (exhaust 80° C., 60 min, curing temperature 140 ° C.): 0.88 Log | Log reduction of antimicrobial performance (exhaust 80° C., 60 min, curing temperature 160 ° C.): 1.34 Log | Log reduction of antimicrobial performance (exhaust 80° C., 60 min, curing temperature 165 ° C.): 1.38 Log | Log reduction of antimicrobial performance (exhaust 80° C., 60 min, curing temperature 170 ° C.): 1.48 Log | Log reduction of antimicrobial performance (exhaust 80° C., 60 min, curing temperature 175 ° C.): 2.41 Log | Log reduction of antimicrobial performance (exhaust 80° C., 60 min, curing temperature 180 ° C.): 2.67 Log | Log reduction of antimicrobial performance (exhaust 80° C., 60 min, curing temperature 185 ° C.): 2.68 Log | Log reduction of antimicrobial performance (exhaust 80° C., 60 min, curing temperature 190 ° C.): 2.69 Log | Log reduction of antimicrobial performance (exhaust 80° C., 60 min, curing temperature 195 ° C.): 2.71 Log | Log reduction of antimicrobial performance in 100 GSM cotton fabric [1]: 0.63 Log | Log reduction of antimicrobial performance in 300 GSM cotton fabric [1]: 0.65 Log | Log reduction of antimicrobial performance in 100 GSM cotton fabric [2]: 1.37 Log | Log reduction of antimicrobial performance in 300 GSM cotton fabric [2]: 1.38 Log | Log reduction of antimicrobial performance in 100 GSM cotton fabric [3]: 1.91 Log | Log reduction of antimicrobial performance in 300 GSM cotton fabric [3]: 1.91 Log | Log reduction of antimicrobial performance in 100 GSM cotton fabric [4]: 2.21 Log | Log reduction of antimicrobial performance in 300 GSM cotton fabric [4]: 2.21 Log | Log reduction of antimicrobial performance in 100 GSM cotton fabric [5]: 2.71 Log | Log reduction of antimicrobial performance in 300 GSM cotton fabric [5]: 2.72 Log | Log reduction of antimicrobial performance of each active ingredient (exhaust 80° C., 60 min, dosage 1% o.w.f (test up to 5% o.w.f)): 2.45 Log | Log reduction of antimicrobial performance of each active ingredient (exhaust 80° C., 60 min, dosage 2% o.w.f): 2.46 Log | Log reduction of antimicrobial performance of each active ingredient (exhaust 80° C., 60 min, dosage 3% o.w.f): 2.47 Log | Log reduction of antimicrobial performance of each active ingredient (exhaust 80° C., 60 min, dosage 4% o.w.f): 2.47 Log | Log reduction of antimicrobial performance of each active ingredient (exhaust 80° C., 60 min, dosage 5% o.w.f): 2.47 Log | Log reduction of antimicrobial performance of each active ingredient (exhaust 80 ° C., solution dosage 1% o.w.f, process time 10 min): 0.67 Log | Log reduction of antimicrobial performance of each active ingredient (exhaust 80 ° C., solution dosage 1% o.w.f, process time 20 min): 1.13 Log | Log reduction of antimicrobial performance of each active ingredient (exhaust 80 ° C., solution dosage 1% o.w.f, process time 30 min): 1.43 Log | Log reduction of antimicrobial performance of each active ingredient (exhaust 80 ° C., solution dosage 1% o.w.f, process time 40 min): 1.73 Log | Log reduction of antimicrobial performance of each active ingredient (exhaust 80 ° C., solution dosage 1% o.w.f, process time 50 min): 2.45 Log | Log reduction of antimicrobial performance of each active ingredient (exhaust 80 ° C., solution dosage 1% o.w.f, process time 60 min): 2.67 Log | Log reduction of antimicrobial performance of each active ingredient (exhaust 80 ° C., solution dosage 1% o.w.f, process time 70 min): 2.68 Log | Log reduction of antimicrobial performance of each active ingredient (exhaust 80 ° C., solution dosage 1% o.w.f, process time 80 min): 2.72 Log
